Assays:
[1] = xn = mol fraction of the nth substance listed; conditions: Drop volume
[2] = Drop volume

CCCCCl [1-chlorobutane] + CCCCCC
surface tension liquid-gas [mN/m], [1]
Conditions	283.15 K	288.15 K	293.15 K	298.15 K	303.15 K	308.15 K	313.15 K
x2 = 0.0493	24.17	23.68	23.11	22.74	22.08	21.5	21.04
x2 = 0.1016	23.7	23.21	22.63	22.27	21.62	21.03	20.59
x2 = 0.2048	22.96	22.46	21.88	21.52	20.89	20.28	19.84
x2 = 0.3038	22.32	21.83	21.28	20.93	20.32	19.69	19.28
x2 = 0.3967	21.82	21.32	20.79	20.43	19.83	19.18	18.79
x2 = 0.5015	21.29	20.78	20.25	19.89	19.31	18.64	18.27
x2 = 0.6086	20.85	20.31	19.77	19.39	18.82	18.14	17.81
x2 = 0.7097	20.48	19.93	19.4	19	18.46	17.77	17.47
x2 = 0.804	20.19	19.63	19.1	18.71	18.18	17.46	17.18
x2 = 0.9021	19.91	19.35	18.84	18.43	17.91	17.16	16.89
x2 = 0.9391	19.81	19.24	18.73	18.31	17.79	17.02	16.75

CCCCCC [hexane]
[2]
Conditions	surface tension liquid-gas [mN/m]
283.15 K	19.63
288.15 K	19.04
293.15 K	18.52
298.15 K	18.06
303.15 K	17.53
308.15 K	16.74
313.15 K	16.47

CCCCCCl [1-chloropentane] + CCCCCC
surface tension liquid-gas [mN/m], [1]
Conditions	283.15 K	288.15 K	293.15 K	298.15 K	303.15 K	308.15 K	313.15 K
x2 = 0.0482	25.44	25.02	24.53	24.02	23.59	23.11	22.64
x2 = 0.1185	24.7	24.3	23.83	23.35	22.95	22.45	22.02
x2 = 0.1991	24	23.59	23.09	22.64	22.24	21.71	21.3
x2 = 0.308	23.2	22.76	22.25	21.78	21.37	20.8	20.41
x2 = 0.3925	22.62	22.17	21.67	21.2	20.75	20.16	19.8
x2 = 0.5087	21.91	21.44	20.94	20.47	20.03	19.4	19.05
x2 = 0.5953	21.41	20.94	20.47	20.02	19.56	18.91	18.56
x2 = 0.7076	20.85	20.37	19.9	19.45	18.98	18.3	18
x2 = 0.7889	20.47	19.98	19.5	19.04	18.56	17.88	17.58
x2 = 0.9069	19.97	19.44	18.94	18.5	17.99	17.25	16.99
x2 = 0.9474	19.81	19.24	18.74	18.29	17.79	17.05	16.77

CCCCCCl [1-chloropentane]
[2]
Conditions	surface tension liquid-gas [mN/m]
283.15 K	26.02
288.15 K	25.58
293.15 K	25.02
298.15 K	24.46
303.15 K	24.02
308.15 K	23.51
313.15 K	23.02

CCCCCl [1-chlorobutane]
[2]
Conditions	surface tension liquid-gas [mN/m]
283.15 K	24.73
288.15 K	24.24
293.15 K	23.64
298.15 K	23.29
303.15 K	22.62
308.15 K	22.03
313.15 K	21.53
